Measured values: patent US7998995B2 (Exelixis Patent Company LLC, priority 2006, dated 2011)

Experiments:
LXR = test system: T1, LXR; test: Measured EC50 or IC50 for LXR (LXRα and/or LXRβ; assay and subtype not given); details: IC50 or EC50 class, subtype not specified
T1 construct: fused on or other part: GST fused to the LBD in the FRET assay
Protocol: (§1) Measured EC50 or IC50 for LXR, and FXR for Compounds of the Invention
(§2) LXR and FXR activities for various compounds of the invention are presented in the following table; those compounds with EC50 or IC50 values <10 μM for at least one of LXRα, LXRβ or FXR are considered to be active. In the following Table, IC50 or EC50 data is represented as follows: A<1 μM, B=1-10 μm, and C>10 μM.

FXR = target: T2, FXR (Homo sapiens, UniProt Q96RI1); test: Measured EC50 or IC50 for FXR (assay not given); details: IC50 or EC50 class; assay not specified
T2 sequence (Q96RI1 1-472 isoform Q96RI1-2): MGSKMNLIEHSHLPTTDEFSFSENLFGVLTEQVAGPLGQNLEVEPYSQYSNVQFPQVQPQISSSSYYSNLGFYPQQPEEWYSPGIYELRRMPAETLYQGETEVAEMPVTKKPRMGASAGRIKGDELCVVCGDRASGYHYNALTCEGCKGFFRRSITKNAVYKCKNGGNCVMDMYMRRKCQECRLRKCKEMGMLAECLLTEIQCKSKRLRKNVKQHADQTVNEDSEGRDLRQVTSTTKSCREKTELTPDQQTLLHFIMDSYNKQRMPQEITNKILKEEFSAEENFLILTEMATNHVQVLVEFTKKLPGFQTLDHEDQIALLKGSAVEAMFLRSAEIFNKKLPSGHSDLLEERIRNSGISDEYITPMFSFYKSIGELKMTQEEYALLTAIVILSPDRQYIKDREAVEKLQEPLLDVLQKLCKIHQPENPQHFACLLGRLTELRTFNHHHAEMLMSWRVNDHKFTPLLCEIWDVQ
Protocol: as §1, §2

EC50 (LXR) [nM] | EC50 (FXR) [nM] | SMILES
< 1000 | 1000 to 10000 | CC(C)(O)c1cc(-c2ccc(-c3cccc(S(C)(=O)=O)c3)s2)n(-c2c(Cl)cccc2Cl)n1 [Example 949, 2-[1-(2,6-dichlorophenyl)-5-{5-[3-(methylsulfonyl)phenyl]-2-thienyl}-1H-pyrazol-3-yl]propan-2-ol]
< 1000 | 1000 to 10000 | CC(C)(O)c1cc(-c2ccc(-c3cccc(S(C)(=O)=O)c3)s2)n(-c2c(F)cccc2Cl)n1 [Example 950, 2-[1-(2-chloro-6-fluorophenyl)-5-{5-[3-(methylsulfonyl)phenyl]-2-thienyl}-1H-pyrazol-3-yl]propan-2-ol]
< 1000 | 1000 to 10000 | CC(C)(O)c1cc(-c2ccc(-c3cccc(S(C)(=O)=O)c3)s2)n(-c2c(F)cccc2C(F)(F)F)n1 [Example 951]
< 1000 | 1000 to 10000 | Cc1cccc(Cl)c1-n1nc(C(C)(C)O)cc1-c1ccc(-c2cccc(S(C)(=O)=O)c2)s1 [Example 952, 2-[1-(2-chloro-6-methylphenyl)-5-{5-[3-(methylsulfonyl)phenyl]-2-thienyl}-1H-pyrazol-3-yl]propan-2-ol]
< 1000 | 1000 to 10000 | CC(C)(O)c1nn(-c2c(Cl)cccc2Cl)c(-c2ccc(-c3cccc(S(C)(=O)=O)c3)s2)c1Cl [Example 953, 2-[4-chloro-1-(2,6-dichlorophenyl)-5-{5-[3-(methylsulfonyl)phenyl]-2-thienyl}-1H-pyrazol-3-yl]propan-2-ol]
< 1000 | 1000 to 10000 | CC(C)(O)c1nn(-c2c(F)cccc2Cl)c(-c2ccc(-c3cccc(S(C)(=O)=O)c3)s2)c1Cl [Example 954, 2-[4-chloro-1-(2-chloro-6-fluorophenyl)-5-{5-[3-(methylsulfonyl)phenyl]-2-thienyl}-1H-pyrazol-3-yl]propan-2-ol]
< 1000 | 1000 to 10000 | CC(C)(O)c1cc(-c2ccc(-c3cccc(S(C)(=O)=O)c3)s2)n(-c2c(Cl)cncc2Cl)n1 [Example 955, 2-[1-(3,5-dichloropyridin-4-yl)-5-{5-[3-(methylsulfonyl)phenyl]-2-thienyl}-1H-pyrazol-3-yl]propan-2-ol]
< 1000 | 1000 to 10000 | CC(C)(O)c1cc(-c2ccc(-c3cccc(S(C)(=O)=O)c3)cc2)n(-c2c(Cl)cccc2Cl)n1 [Example 956, 2-{1-(2,6-dichlorophenyl)-5-[3′-(methylsulfonyl)biphenyl-4-yl]-1H-pyrazol-3-yl}propan-2-ol]
< 1000 | < 1000 | CC(C)(O)c1nn(-c2c(Cl)cccc2Cl)c(-c2ccc(-c3cccc(S(C)(=O)=O)c3)cc2)c1Cl [Example 957, 2-{4-chloro-1-(2,6-dichlorophenyl)-5-[3′-(methylsulfonyl)biphenyl-4-yl]-1H-pyrazol-3-yl}propan-2-ol]
< 1000 | < 1000 | CC(C)(O)c1cc(-c2ccc(-c3cccc(S(C)(=O)=O)c3)cc2Cl)n(-c2c(Cl)cccc2Cl)n1 [Example 958, 2-{5-[3-chloro-3′-(methylsulfonyl)biphenyl-4-yl]-1-(2,6-dichlorophenyl)-1H-pyrazol-3-yl}propan-2-ol]
< 1000 | < 1000 | CC(C)(O)c1nn(-c2c(Cl)cccc2Cl)c(-c2ccc(-c3cccc(S(C)(=O)=O)c3)cc2Cl)c1Cl [Example 959, 2-{4-chloro-5-[3-chloro-3′-(methysulfonyl)biphenyl-4-yl]-1-(2,6-dichlorophenyl)-1H-pyrazol-3-yl}propan-2-ol]
< 1000 | < 1000 | Cc1cc(-c2cccc(S(C)(=O)=O)c2)ccc1-c1cc(C(C)(C)O)nn1-c1c(Cl)cccc1Cl [Example 960, 2-{1-(2,6-dichlorophenyl)-5-[3-methyl-3′-(methylsulfonyl)biphenyl-4-yl]-1H-pyrazol-3-yl}propan-2-ol]
1000 to 10000 | < 1000 | Cc1cc(-c2cc(C(C)(C)O)nn2-c2c(Cl)cccc2Cl)ccc1-c1cccc(S(C)(=O)=O)c1 [Example 961, 2-{1-(2,6-dichlorophenyl)-5-[2-methyl-3′-(methylsulfonyl)biphenyl-4-yl]-1H-pyrazol-3-yl}propan-2-ol]
< 1000 | 1000 to 10000 | CC(C)(O)c1cc(-c2c(F)cccc2Cl)n(-c2ccc(-c3cccc(S(C)(=O)=O)c3)cc2)n1 [Example 962, 2-{5-(2-chloro-6-fluorophenyl)-1-[3′-(methylsulfonyl)biphenyl-4-yl]-1H-pyrazol-3-yl}propan-2-ol]
< 1000 | 1000 to 10000 | CC(C)(O)c1cc(-c2c(Cl)cccc2Cl)n(-c2ccc(-c3cccc(S(C)(=O)=O)c3)cc2)n1 [Example 963, 2-{5-(2,6-dichlorophenyl)-1-[3′-(methylsulfonyl)biphenyl-4-yl]-1H-pyrazol-3-yl}propan-2-ol]
< 1000 | 1000 to 10000 | CC(C)(O)c1nn(-c2ccc(-c3cccc(S(C)(=O)=O)c3)cc2F)c(-c2c(F)cccc2Cl)c1Cl [Example 964, 2-{4-chloro-5-(2-chloro-6-fluorophenyl)-1-[3-fluoro-3′-(methysulfonyl)biphenyl-4-yl]-1H-pyrazol-3-yl}propan-2-ol]
< 1000 | 1000 to 10000 | CC(C)(O)c1cc(-c2c(Cl)cccc2Cl)n(-c2ccc(-c3cccc(S(C)(=O)=O)c3)cc2Cl)n1 [Example 965, 2-{1-[3-chloro-3′-(methylsulfonyl)biphenyl-4-yl]-5-(2,6-dichlorophenyl)-1H-pyrazol-3-yl}propan-2-ol]
< 1000 | 1000 to 10000 | Cc1cc(-c2cccc(S(C)(=O)=O)c2)ccc1-n1nc(C(C)(C)O)cc1-c1c(Cl)cccc1Cl [Example 966, 2-{5-(2,6-dichlorophenyl)-1-[3-methyl-3′-(methylsulfonyl)biphenyl-4-yl]-1H-pyrazol-3-yl}propan-2-ol]
< 1000 | 1000 to 10000 | Cc1cc(-c2cccc(S(C)(=O)=O)c2)ccc1-n1nc(C(C)(C)O)c(Cl)c1-c1c(Cl)cccc1Cl [Example 967, 2-{4-chloro-5-(2,6-dichlorophenyl)-1-[3-methyl-3′-(methylsulfonyl)biphenyl-4-yl]-1H-pyrazol-3-yl}propan-2-ol]
< 1000 | > 10000 | Cc1cc(-c2cccc(S(C)(=O)=O)c2)ccc1-n1nc(C(C)(C)O)c(Cl)c1-c1c(F)cccc1Cl [Example 968, 2-{4-chloro-5-(2-chloro-6-fluorophenyl)-1-[3-methyl-3′-(methylsulfonyl)biphenyl-4-yl]-1H-pyrazol-3-yl}propan-2-ol]
1000 to 10000 | 1000 to 10000 | Cc1cc(-n2nc(C(C)(C)O)cc2-c2c(F)cccc2Cl)ccc1-c1cccc(S(C)(=O)=O)c1 [Example 969, 2-{5-(2-chloro-6-fluorophenyl)-1-[2-methyl-3′-(methylsulfonyl)biphenyl-4-yl]-1H-pyrazol-3-yl}propan-2-ol]
1000 to 10000 | 1000 to 10000 | Cc1cc(-n2nc(C(C)(C)O)cc2-c2c(Cl)cccc2Cl)ccc1-c1cccc(S(C)(=O)=O)c1 [Example 970, 2-{5-(2,6-dichlorophenyl)-1-[2-methyl-3′-(methylsulfonyl)biphenyl-4-yl]-1H-pyrazol-3-yl}propan-2-ol]
< 1000 | 1000 to 10000 | Cc1cc(-n2nc(C(C)(C)O)c(Cl)c2-c2c(F)cccc2Cl)ccc1-c1cccc(S(C)(=O)=O)c1 [Example 971, 2-{4-chloro-4-(2-chloro-6-fluoropehnyl)-1-[2-methyl-3′-(methylsulfonyl)biphenyl-4-yl]-1H-pyrazol-3-yl}propan-2-ol]
1000 to 10000 | 1000 to 10000 | Cc1cc(-n2nc(C(C)(C)O)c(Cl)c2-c2c(Cl)cccc2Cl)ccc1-c1cccc(S(C)(=O)=O)c1 [Example 972, 2-{4-chloro-5-(2,6-dichlorophenyl)-1-[2-methyl-3′-(methylsulfonyl)biphenyl-4-yl]-1H-pyrazol-3-yl}propan-2-ol]
